{"source": "patent US6831069B2", "about": "“Pyrrolo[2,3-d]pyrimidine nucleoside analogs” (priority 1999, dated 2004)", "key": {"[1]": {"tested_on": "Human Prostate cancer cells, HTB81", "assay": "VEGF secretion, VEGF Elisa Assay", "format": "cell-based", "settings": "72 hrs treatment", "protocol": "The compounds 23a(5′-R) and 23a(5′-S) are potent in inhibition of secretion of Vascular Endothelial Growth Factor (VEGF) from Human Prostate cancer cells, HTB81. VEGF is recognized as angiogenesis marker since this molecule is crucial for migration and growth of endothelial cells and microvessel formation in vivo. […] The compounds were applied just after plating for 72 hrs. After that, the medium was collected and the level of VEGF was measured using VEGF Elisa Assay (R & D Systems) and expressed as pg of VEGF per ml of the medium."}, "[2]": {"tested_on": "Human Prostate cancer cells, HTB81", "assay": "IL-8 secretion, IL-8 Elisa Assay", "format": "cell-based", "settings": "concentrations indicated in FIG. 12", "excerpt": "The compound 23a(5′-R) and 23a(5′-S) indicate an inhibitory effect on secretion of Interleukin-8 (IL-8) from human prostate cancer cells, HTB81. IL-8 belongs to the class of chemo-attractant chemokines (type alpha), which are involved in inflammation processes due to attraction of neutrophils. Chemokines, in general, are known to be produced by various types of cancer. It is proven in several studies that inhibition of chemokine production by cancer cells is beneficial for the host. […] The medium collected from the culture was analyzed for IL-8 level using IL-8 Elisa Assay from R&D Systems."}, "[3]": {"tested_on": "activated human T cells", "assay": "Analysis of cytokine mRNA (RT-PCR, Southern blot) in PMA-ION activated human T cells", "format": "cell-based", "settings": "experiment corresponding to FIG. 18; FIG. 26"}, "[4]": {"tested_on": "B10.PL (H-2u) mice", "assay": "Murine EAE model of multiple sclerosis, prophylactic treatment", "format": "in vivo, mouse", "settings": "0.1 mg/kg IP daily for 10d before induction of disease"}, "[5]": {"tested_on": "PHA stimulated T-cells", "assay": "Type 1 and Type 2 cytokines in PHA stimulated T-cells", "format": "cell-based, human", "settings": "FIG. 24"}, "[6]": {"tested_on": "BALB/c and C57BL/6 lymph node CD4+ T cells", "assay": "Generation of murine Th1 cells, IL-4 and IFNγ ELISA after restimulation", "format": "cell-based, mouse", "settings": "murine CD4+ cells induced with IL-2, IFN-γ, IL-12; BALB/c and C57BL/6; versus without compound"}}, "note": "Counter-ions that a name gives are not always drawn."}
{"smiles": "C[C@@H](O)[C@H]1O[C@@H](n2cc(C#N)c3c(N)ncnc32)[C@H](O)[C@@H]1O", "note": "[23a(5′-R), 4-Amino-5-cyano-7-(5(R)-C-methyl-β-D-ribofuranosyl)pyrrolo[2,3-d]pyrimidine]", "values": [{"measurement": "secretion of VEGF", "setting": "[1]", "result": "inhibit secretion of VEGF in a dose-dependent manner"}, {"measurement": "secretion of IL-8", "setting": "[2]", "result": "inhibit secretion of IL-8 in a dose-dependent manner"}]}
{"smiles": "C[C@H](O)[C@H]1O[C@@H](n2cc(C#N)c3c(N)ncnc32)[C@H](O)[C@@H]1O", "note": "[23a(5′-S), 4-Amino-5-cyano-7-(5(S)-C-methyl-β-D-ribofuranosyl)pyrrolo[2,3-d]pyrimidine]", "values": [{"measurement": "secretion of VEGF", "setting": "[1]", "result": "inhibit secretion of VEGF in a dose-dependent manner"}, {"measurement": "secretion of IL-8", "setting": "[2]", "result": "inhibit secretion of IL-8 in a dose-dependent manner"}]}
{"smiles": "Cl.N=C(N)c1cn([C@@H]2O[C@H](CO)[C@@H](O)[C@H]2O)c2nc[nH]c(=O)c12", "note": "[ICN 17739, 7-(β-D-ribofuranosyl)pyrrolo[2,3-d]-4-pyrimidone-5-carboxamidine Hydrochloride]", "values": [{"measurement": "anti-inflammatory and anti-proliferative responses (RNA expression)", "setting": "[3]", "result": "induction of anti-inflammatory and anti-proliferative responses"}]}
{"smiles": "N=C(N)c1cn([C@@H]2O[C@H](CO)[C@H](O)C2O)c2nc[nH]c(=O)c12", "note": "(stereo partly drawn) [ICN 17739, 7-(β-D-ribofuranosyl)pyrrolo[2,3-d]-4-pyrimidone-5-carboxamidine Hydrochloride]", "values": [{"measurement": "MBP-specific Th2 cytokine producing T-cells", "setting": "[4]", "result": "induces MBP-specific Th2 cytokine producing T-cells"}, {"measurement": "onset of murine EAE", "setting": "[4]", "result": "clearly delayed onset"}, {"measurement": "Type 1 cytokines", "setting": "[5]", "result": "significant decrease"}, {"measurement": "production of Type 2 cytokines", "setting": "[5]", "result": "significant increase"}, {"measurement": "IFN-γ production of induced Th1 cells", "setting": "[6]", "result": "significantly decreased"}, {"measurement": "IL-4 production of induced Th1 cells", "setting": "[6]", "result": "significantly increased"}]}
